For series [1], the target named is T1, α1β2γ2 GABA receptors (α1β2γ2-CHO-TRex stable cell strain) (Homo sapiens, UniProt P14867+P47870).
T1 construct: expressed in transfected cells
As to the kind of experiment: Whole-cell patch clamp, intrasynaptic functional activity (positive allosteric regulation of GABA-induced current). Type of series: cell-based. The settings on record: patch clamp -60 mV, GABA at EC10-20, α1β2γ2-CHO-TRex cells. The method in brief: (§1)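 Tetracycline-induced stable lines were used: α4β3δ in HEK-FlpIn-TRex and α1β2γ2 in CHO-TRex. Whole-cell patch clamp was run at −60 mV with GABA at EC10-20 ([…]) and compound perfused for 30 s before GABA, with extracellular pH 7.4. Fold increase in GABA current over ≥5 concentrations on ≥3 cells gave EC50 and Emax by Hill fit.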
On the technique in general: In patch-clamp work, channel activity is measured electrically.

Series [2] concerns the target T2, α4β3δ GABA receptors (α4β3δ-HEK-FlpIn-TRex stable cell strain) (Homo sapiens, UniProt P28472+P48169).
T2 construct: expressed in transfected cells
Description: Whole-cell patch clamp, extrasynaptic functional activity (positive allosteric regulation of GABA-induced current). Type of series: cell-based. The settings on record: patch clamp -60 mV, GABA at EC10-20, α4β3δ-HEK-FlpIn-TRex cells. The method in brief:
as §1

Series [3] can be described thus: In vitro liver microsomal stability assay, human. Type of series: in vitro ADME. The settings on record: for Remaining amount % at 60 min: Human liver microsomes 0.5 mg/mL, NADPH; for microsomal CLint at 1 µM: read-out: CLint(mic). The method in brief:
(§2)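 Test compound at […] was incubated at 37° C with 0.5 mg/mL rat or human liver microsomes, 1 mM NADPH and 3 mM MgCl2, in triplicate, sampled 0–60 min. Remaining parent was quantified by LC-MS/MS, giving half-life and microsomal and hepatic intrinsic clearance.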
In general terms: Liver microsomes are a subcellular fraction often used to study metabolism.

The nature of series [4]: In vitro liver microsomal stability assay, rat. Type of series: in vitro ADME. The settings on record: for Remaining amount % at 60 min: Rat liver microsomes 0.5 mg/mL, NADPH; for microsomal CLint at 1 µM: read-out: CLint(mic). The method in brief:
as §2

The term EC50 denotes the concentration needed to bring the measured effect to its halfway point. The low end stands for a more potent agent, the high end for a less potent agent. One may read the Emax as the greatest response seen or fitted, relative to the assay's reference. For orientation: CLint scaled means the rate of metabolic loss divided by the concentration. One may read the half-life as how long it takes for the measured level to halve. A higher half-life goes with slow loss.

Structures are written as SMILES.

T1 sequence (P14867 28-456): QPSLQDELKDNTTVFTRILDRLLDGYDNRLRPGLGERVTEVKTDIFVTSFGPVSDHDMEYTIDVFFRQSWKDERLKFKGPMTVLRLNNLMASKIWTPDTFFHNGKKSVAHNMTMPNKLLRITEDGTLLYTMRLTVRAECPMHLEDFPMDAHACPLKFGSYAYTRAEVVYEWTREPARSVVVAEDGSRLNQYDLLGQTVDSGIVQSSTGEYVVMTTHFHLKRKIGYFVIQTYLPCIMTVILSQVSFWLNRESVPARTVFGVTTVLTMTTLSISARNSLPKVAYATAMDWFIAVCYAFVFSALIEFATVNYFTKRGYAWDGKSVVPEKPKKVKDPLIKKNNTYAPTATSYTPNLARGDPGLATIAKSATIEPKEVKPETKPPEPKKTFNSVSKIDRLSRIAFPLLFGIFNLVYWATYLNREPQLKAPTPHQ
T1 sequence (P47870 25-512 limits assumed): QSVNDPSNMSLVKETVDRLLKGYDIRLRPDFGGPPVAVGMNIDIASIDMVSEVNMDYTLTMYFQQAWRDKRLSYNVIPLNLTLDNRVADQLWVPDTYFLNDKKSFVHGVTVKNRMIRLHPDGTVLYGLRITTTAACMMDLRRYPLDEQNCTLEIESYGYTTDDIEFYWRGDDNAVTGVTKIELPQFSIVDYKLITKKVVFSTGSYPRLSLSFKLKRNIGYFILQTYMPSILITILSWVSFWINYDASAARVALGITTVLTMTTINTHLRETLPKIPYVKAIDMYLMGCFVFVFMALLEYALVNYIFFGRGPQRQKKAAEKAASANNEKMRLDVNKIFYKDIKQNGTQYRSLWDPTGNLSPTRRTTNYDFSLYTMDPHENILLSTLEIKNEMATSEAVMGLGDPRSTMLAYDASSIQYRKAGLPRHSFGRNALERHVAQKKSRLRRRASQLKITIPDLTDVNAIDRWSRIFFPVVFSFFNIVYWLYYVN
T1 sequence (P18507 40-475 partner): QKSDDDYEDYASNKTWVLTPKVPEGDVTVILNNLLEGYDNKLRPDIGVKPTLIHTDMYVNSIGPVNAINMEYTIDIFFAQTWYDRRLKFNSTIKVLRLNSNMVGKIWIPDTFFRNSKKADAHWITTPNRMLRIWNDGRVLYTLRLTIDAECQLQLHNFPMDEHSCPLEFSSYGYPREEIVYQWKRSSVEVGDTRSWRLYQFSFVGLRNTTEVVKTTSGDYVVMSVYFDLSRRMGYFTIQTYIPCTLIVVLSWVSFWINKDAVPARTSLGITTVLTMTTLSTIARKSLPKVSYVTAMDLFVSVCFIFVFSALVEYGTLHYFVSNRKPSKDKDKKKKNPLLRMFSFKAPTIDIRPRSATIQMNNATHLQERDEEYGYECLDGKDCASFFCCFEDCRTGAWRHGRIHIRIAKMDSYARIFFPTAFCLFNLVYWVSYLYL
T2 sequence (P48169 36-554): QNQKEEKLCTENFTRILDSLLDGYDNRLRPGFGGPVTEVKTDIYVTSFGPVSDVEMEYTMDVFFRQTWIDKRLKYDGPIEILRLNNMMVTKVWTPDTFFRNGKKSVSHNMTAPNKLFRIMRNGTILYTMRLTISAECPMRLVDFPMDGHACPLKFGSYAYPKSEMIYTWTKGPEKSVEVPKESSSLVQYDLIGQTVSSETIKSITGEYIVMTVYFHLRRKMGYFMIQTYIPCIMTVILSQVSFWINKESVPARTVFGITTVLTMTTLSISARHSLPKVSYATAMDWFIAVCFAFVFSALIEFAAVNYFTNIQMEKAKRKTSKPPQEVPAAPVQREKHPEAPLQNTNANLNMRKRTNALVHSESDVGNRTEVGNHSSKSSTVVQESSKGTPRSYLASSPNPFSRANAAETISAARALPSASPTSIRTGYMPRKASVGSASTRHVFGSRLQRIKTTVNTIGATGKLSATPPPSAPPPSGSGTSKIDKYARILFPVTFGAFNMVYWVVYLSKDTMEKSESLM
T2 sequence (P28472 26-473): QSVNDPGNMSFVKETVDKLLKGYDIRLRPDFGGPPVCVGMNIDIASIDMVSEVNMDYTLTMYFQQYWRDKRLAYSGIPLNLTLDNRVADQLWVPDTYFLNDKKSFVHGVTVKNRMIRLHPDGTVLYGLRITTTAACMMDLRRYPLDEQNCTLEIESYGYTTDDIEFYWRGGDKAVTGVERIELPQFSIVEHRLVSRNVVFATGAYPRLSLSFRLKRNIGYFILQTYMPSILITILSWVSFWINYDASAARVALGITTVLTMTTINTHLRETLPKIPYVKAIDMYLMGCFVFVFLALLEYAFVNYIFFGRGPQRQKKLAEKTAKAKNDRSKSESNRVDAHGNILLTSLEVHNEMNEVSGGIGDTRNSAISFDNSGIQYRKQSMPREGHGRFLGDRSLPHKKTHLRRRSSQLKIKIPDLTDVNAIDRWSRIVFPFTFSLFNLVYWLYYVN
T2 sequence (O14764 25-452 partner): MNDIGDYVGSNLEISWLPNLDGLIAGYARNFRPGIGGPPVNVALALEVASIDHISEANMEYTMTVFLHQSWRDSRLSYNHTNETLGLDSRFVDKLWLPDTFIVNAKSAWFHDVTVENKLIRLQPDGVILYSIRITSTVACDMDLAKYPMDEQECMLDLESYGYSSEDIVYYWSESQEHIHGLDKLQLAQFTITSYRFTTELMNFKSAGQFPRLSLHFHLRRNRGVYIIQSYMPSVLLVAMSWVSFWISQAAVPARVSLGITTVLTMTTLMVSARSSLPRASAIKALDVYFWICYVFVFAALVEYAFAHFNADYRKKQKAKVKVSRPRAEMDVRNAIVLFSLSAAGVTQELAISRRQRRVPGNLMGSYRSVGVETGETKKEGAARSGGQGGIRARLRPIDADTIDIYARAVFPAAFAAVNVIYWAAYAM

In series [1], `C[C@@]1(O)CC[C@H]2[C@H](CC[C@@H]3[C@@H]2CC[C@]2(C)[C@@H](C(=O)Cn4cnn(-c5cccc(F)n5)c4=O)CC[C@@H]32)C1` [Compound 20] registered a 50% effective concentration (EC50) of 368 nM and an Emax of 724%. In series [2], this compound gave an EC50 of 360 nM and an Emax of 966%. Moreover, in series [3] (Human liver microsomes), the CLint scaled at 1 µM amounted to 28 mL/min/kg, the half-life at 1 µM came out at 70.7 min and the microsomal CLint at 1 µM is 20 µL/min/mg. The “Remaining amount % at 60 min” value in series [3] came out at 52.3%. For the same compound, in series [4] (Rat liver microsomes), the CLint scaled at 1 µM amounted to 320 mL/min/kg, the half-life at 1 µM came to 7.8 min and the microsomal CLint at 1 µM was 178 µL/min/mg. Further, the “Remaining amount % at 60 min” value in series [4] is 8.40%.

In series [1], `C[C@@]1(O)CC[C@H]2[C@H](CC[C@@H]3[C@@H]2CC[C@]2(C)[C@@H](C(=O)Cn4cnn(-c5cncc(F)c5)c4=O)CC[C@@H]32)C1` [Compound 23] registered a concentration giving a half-maximal response (EC50) of 145 nM and an Emax of 618%. In series [2], it took 150 nM to reach a half-maximal effect (EC50) and the Emax worked out at 601%. In series [3] (Human liver microsomes), the CLint scaled at 1 µM amounted to 21 mL/min/kg, the half-life at 1 µM amounted to 60.3 min and the microsomal CLint at 1 µM turned out to be 23 µL/min/mg. Moreover, the “Remaining amount % at 60 min” value in series [3] is on record as 53.4%. In addition, in series [4] (Rat liver microsomes), the intrinsic clearance (CLint scaled) at 1 µM turned out to be 72 mL/min/kg, the half-life at 1 µM worked out at 34.7 min and the microsomal CLint at 1 µM is 40 µL/min/mg. For the same compound, the “Remaining amount % at 60 min” value in series [4] worked out at 31.7%.

In series [1], `C[C@@]1(O)CC[C@H]2[C@H](CC[C@@H]3[C@@H]2CC[C@]2(C)[C@@H](C(=O)Cn4cnn(-c5ccccc5F)c4=O)CC[C@@H]32)C1` [Compound 18] had an EC50 of 171 nM and an Emax of 710%. Besides, in series [2], a half-maximal effect (EC50) was put at 107 nM and the Emax amounted to 541%. In addition, in series [3] (Human liver microsomes), the CLint scaled at 1 µM came to 30 mL/min/kg, the half-life at 1 µM turned out to be 41.7 min and the microsomal CLint at 1 µM was 33 µL/min/mg. The “Remaining amount % at 60 min” value in series [3] turned out to be 38.3%. In addition, in series [4] (Rat liver microsomes), the CLint scaled at 1 µM came to 278 mL/min/kg, the half-life at 1 µM came to 9 min and the microsomal CLint at 1 µM is 154 µL/min/mg. Besides, the “Remaining amount % at 60 min” value in series [4] was found to be 9.7%.

`C[C@@]1(O)CC[C@H]2[C@H](CC[C@@H]3[C@@H]2CC[C@]2(C)[C@@H](C(=O)Cn4cnn(C5CCCCC5)c4=O)CC[C@@H]32)C1` [Compound 30]: in series [1], the EC50 is 585 nM and the Emax stood at 873%. In series [2], a half-maximal effect (EC50) was put at 237 nM and the Emax came to 685%. Further, in series [3] (Human liver microsomes), the CLint scaled at 1 µM worked out at 91 mL/min/kg, the half-life at 1 µM is 17.5 min and the microsomal CLint at 1 µM worked out at 79 µL/min/mg. Also, in series [3], the “Remaining amount % at 60 min” value came to 9.5%. In series [4] (Rat liver microsomes), the CLint scaled at 1 µM was 329 mL/min/kg, the half-life at 1 µM was determined as 7.6 min and the microsomal CLint at 1 µM came to 183 µL/min/mg. In addition, in series [4], the “Remaining amount % at 60 min” value is reported as 7.4%.

In the case of `C[C@@]1(O)CC[C@H]2[C@H](CC[C@@H]3[C@@H]2CC[C@]2(C)[C@@H](C(=O)Cn4cnn(-c5cccc(C(N)=O)c5)c4=O)CC[C@@H]32)C1` [Compound 19], the Emax amounted to 764% in series [1] and 386% in series [2]. Moreover, the CLint scaled at 1 µM in series [3] (Human liver microsomes) was determined as 26 mL/min/kg; in series [4] (Rat liver microsomes), 141 mL/min/kg. Further, the values for the T1/2 in series [3] (Human liver microsomes) and in series [4] (Rat liver microsomes) were 28.5 min and 17.6 min, respectively. The “Remaining amount % at 60 min” value in series [3] is recorded as 42.2%; in series [4], 9.5%. The microsomal CLint at 1 µM in series [3] (Human liver microsomes) is 29 µL/min/mg; in series [4] (Rat liver microsomes) it was 79 µL/min/mg.

As to `COCCn1ncn(CC(=O)[C@H]2CC[C@H]3[C@@H]4CC[C@@H]5C[C@](C)(O)CC[C@@H]5[C@H]4CC[C@]23C)c1=O` [Compound 31], the figures for the Emax in series [1] and in series [2] were 735% and 609%, respectively. Besides, the figures for the CLint scaled at 1 µM in series [3] (Human liver microsomes) and in series [4] (Rat liver microsomes) were 37 mL/min/kg and 234 mL/min/kg, respectively. The half-life at 1 µM in series [3] (Human liver microsomes) stood at 34.1 min; in series [4] (Rat liver microsomes), 10.7 min. The “Remaining amount % at 60 min” value in series [3] is on record as 28.5%; in series [4], 2.1%. For the same compound, the values for the microsomal CLint at 1 µM in series [3] (Human liver microsomes) and in series [4] (Rat liver microsomes) were 41 µL/min/mg and 130 µL/min/mg, respectively.

In series [1], `C[C@@]1(O)CC[C@H]2[C@H](CC[C@@H]3[C@@H]2CC[C@]2(C)[C@@H](C(=O)Cn4cnn(-c5ccccc5)c4=O)CC[C@@H]32)C1` [Compound 3] returned an EC50 of 90 nM and an Emax of 430%. In series [2], the EC50 was determined as 29 nM and the Emax was 490%. For the same compound, in series [3] (Human liver microsomes), the CLint scaled at 1 µM is 11 mL/min/kg, the half-life at 1 µM is 118 min and the microsomal CLint at 1 µM turned out to be 12 µL/min/mg. Further, the “Remaining amount % at 60 min” value in series [3] is on record as 70.25%. In series [4] (Rat liver microsomes), the intrinsic clearance (CLint scaled) at 1 µM stood at 94 mL/min/kg, the half-life at 1 µM worked out at 26.5 min and the microsomal CLint at 1 µM worked out at 52 µL/min/mg. In addition, the “Remaining amount % at 60 min” value in series [4] amounted to 51.77%.

In series [1], `C[C@@]1(O)CC[C@H]2[C@H](CC[C@@H]3[C@@H]2CC[C@]2(C)[C@@H](C(=O)Cn4cnn(-c5cccc(N)c5)c4=O)CC[C@@H]32)C1` [Compound 22] returned an EC50 of 349 nM and an Emax of 786%. Also, in series [2], the response was half-maximal at 213 nM (EC50). In series [3] (Human liver microsomes), the CLint scaled at 1 µM is 320 mL/min/kg, the half-life at 1 µM came to 7.8 min and the microsomal CLint at 1 µM is 178 µL/min/mg. Moreover, in series [3], the “Remaining amount % at 60 min” value turned out to be 8.6%. Besides, in series [4] (Rat liver microsomes), the CLint scaled at 1 µM was 146 mL/min/kg, the half-life at 1 µM is 17.1 min and the microsomal CLint at 1 µM stood at 81 µL/min/mg. Moreover, the “Remaining amount % at 60 min” value in series [4] stood at 8.9%.

Regarding `Cn1ncn(CC(=O)[C@H]2CC[C@H]3[C@@H]4CC[C@@H]5C[C@](C)(O)CC[C@@H]5[C@H]4CC[C@]23C)c1=O` [Compound 6], the figures for the EC50 in series [1] and in series [2] were 444 nM and 305 nM, respectively. For the same compound, the Emax in series [1] stood at 242%; in series [2] it was 497%. Moreover, the CLint scaled at 1 µM in series [3] (Human liver microsomes) is 10 mL/min/kg; in series [4] (Rat liver microsomes), 117 mL/min/kg. In addition, the half-life at 1 µM in series [3] (Human liver microsomes) came to 126 min; in series [4] (Rat liver microsomes), 21.3 min. Further, the figures for the “Remaining amount % at 60 min” value in series [3] and in series [4] were 72.92% and 15.45%, respectively. The microsomal CLint at 1 µM in series [3] (Human liver microsomes) amounted to 11 µL/min/mg; in series [4] (Rat liver microsomes), 65 µL/min/mg.

Take `C[C@@]1(O)CC[C@H]2[C@H](CC[C@@H]3[C@@H]2CC[C@]2(C)[C@@H](C(=O)Cn4cnn(-c5ccc(F)cc5)c4=O)CC[C@@H]32)C1` [Compound 4]: in series [1], it took 220 nM to reach a half-maximal effect (EC50) and the Emax stood at 390%. In series [2], it took 170 nM to reach a half-maximal effect (EC50) and the Emax turned out to be 410%. Also, in series [3] (Human liver microsomes), the CLint scaled at 1 µM is 13 mL/min/kg, the half-life at 1 µM was determined as 96.3 min and the microsomal CLint at 1 µM came to 14 µL/min/mg. The “Remaining amount % at 60 min” value in series [3] is reported as 64.0%. Besides, in series [4] (Rat liver microsomes), the CLint scaled at 1 µM is 93 mL/min/kg, the half-life at 1 µM was found to be 27 min and the microsomal CLint at 1 µM amounted to 51 µL/min/mg. In series [4], the “Remaining amount % at 60 min” value was determined as 37.09%.

On to `COc1cccc(-n2ncn(CC(=O)[C@H]3CC[C@H]4[C@@H]5CC[C@@H]6C[C@](C)(O)CC[C@@H]6[C@H]5CC[C@]34C)c2=O)c1` [Compound 5], for which the EC50 in series [1] was 26 nM; in series [2], 21 nM. Also, the Emax in series [1] turned out to be 410%; in series [2] it was 570%. The CLint scaled at 1 µM in series [3] (Human liver microsomes) turned out to be 24 mL/min/kg; in series [4] (Rat liver microsomes) it was 176 mL/min/kg. For the same compound, the half-life at 1 µM in series [3] (Human liver microsomes) turned out to be 52.5 min; in series [4] (Rat liver microsomes), 14.1 min. For the same compound, the “Remaining amount % at 60 min” value in series [3] is 43.53%; in series [4] it was 14.19%. For the same compound, the microsomal CLint at 1 µM in series [3] (Human liver microsomes) was 26 µL/min/mg; in series [4] (Rat liver microsomes), 98 µL/min/mg.
